Among the data in PubChem BioAssay (NCI) are TGI and GI50 values, retold here.

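96-well plates; 48 h exposure; 5 concentrations. Endpoints by linear interpolation between flanking doses. Not reached: highest tested concentration assigned. GI50 marks 50% less growth. TGI denotes the concentration required for complete inhibition of growth.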

One test has as its system U251 CNS. The test can be described thus: NCI tumour cell line growth inhibition, 48 h.
The compound `Nc1nc(CCl)nc(Nc2ccccc2)n1` yielded a TGI of 15.6 µM.

Regarding `O=S1OC2(c3ccccc3-c3ccccc32)c2ccccc21` (stereo not drawn), the TGI is > 100 µM.

For `CCOC(=N)CC(=O)Nc1cccc(C)c1C`, the TGI is > 100 µM.

In another test the test system is HCC-2998 colon. Briefly: NCI tumour cell line growth inhibition, 48 h.
On to `COc1cc2ccc3c4cc(OC)c(OC(C)C)cc4cnc3c2cc1OC`, for which the TGI was > 100 µM.

As for `CN(CCCNC(=O)Cc1ccc2ccc3cccc4ccc1c2c34)CCCNc1cc(-c2ccc3ccccc3c2)nc2ccccc12`, the GI50 is 1480 nM and the TGI amounted to 2.98 µM.

For `CC(=O)c1sc(-c2nc(C)c(C(=O)/C=C\c3ccc(/C=C\C(=O)c4sc(-c5nc(C)c(C(C)=O)s5)nc4C)cc3)s2)nc1C`, the TGI was > 100 µM.

In the case of `Cc1ccc(C2(O)CC(c3ccc([N+](=O)[O-])o3)=NN2C(=O)COc2ccc(Cl)cc2)cc1` (stereo not drawn), the TGI was found to be 16.8 µM.

As for `CC1=NN(C(=O)CC(=O)N(C(=O)c2ccccc2Cl)c2ccc(C)cc2)C(=O)C1N=Nc1ccc([N+](=O)[O-])cc1` (stereo not drawn), the TGI is > 100 µM.

Consider `CC(C)(C=O)CC(C#N)/C(=N\NC(N)=O)C(=O)Nc1ccccc1C(N)=O` (stereo not drawn), for which the TGI was > 100 µM.

As to `Cc1cc(C)c(C2[C@H]3C(=O)N(c4ccc(Cc5ccc(N6C(=O)[C@@H]7ON(c8ccccc8)C(c8c(C)cc(C)cc8C)[C@@H]7C6=O)cc5)cc4)C(=O)[C@H]3ON2c2ccccc2)c(C)c1` (stereo partly drawn), the TGI is > 100 µM.

Compound `COc1ccc2[nH]c3c4c(ccc3c2c1)C(=O)C=CC4=O` returned a TGI of 45.9 µM.

For the compound `CCCCOC(=O)NC(=O)c1cn(CCCOC(=O)NCCCCCCNC(=O)OCCCn2cc(C(=O)NC(=O)OCCCC)c(=O)[nH]c2=O)c(=O)[nH]c1=O`, the TGI was > 100 µM.

`COc1cc(C)c2c(c1C)OC(=O)c1c(C)c(Cl)c(O)c(C=O)c1O2` registered a TGI of 47.5 µM.

As for `COC(=O)/C(C=O)=C/Sc1ccccc1`, the TGI was > 100 µM.

`Nc1ccn(C2(CO)C=C(CO)C(O)C2O)c(=O)n1` (stereo not drawn): the TGI was > 25.8 µM.

For `O=C1CC2C(=O)N(Cc3ccccc3)C1C=C2S(=O)(=O)c1ccccc1` (stereo not drawn), the TGI is > 100 µM.

`Cc1ccc(S(=O)(=O)NCCNc2nccc(-c3c(-c4ccc(F)cc4)nc4sccn34)n2)cc1`: the GI50 is > 100000 nM and the TGI was > 100 µM.

As to `O=c1[nH]c2cc(Cl)ccc2nc1/C(=N\O)C(O)c1ccc(Cl)cc1Cl` (stereo not drawn), the TGI is > 100 µM.

As to `CC(C)CCCC(C)[C@H]1CCC2[C@H]3C(CC[C@@]21C)[C@@]1(C)CCC=C[C@]12C[C@@H]2[C@@H]3O` (stereo partly drawn), the TGI was > 100 µM.

Consider `O=C(Nc1cc(Cl)ccc1Cl)C(=O)C(c1cnc2ccccc2n1)[N+](=O)[O-]` (stereo not drawn), for which the TGI is > 100 µM.

In the case of `Cc1cc[c-]cc1.Fc1c[c-]c(-c2ccccn2)c(F)c1.[Pt+2].c1ccc(P(C[PH+](c2ccccc2)c2ccccc2)c2ccccc2)cc1`, the GI50 was 2960 nM and the TGI is 12.1 µM.

On to `COC(=O)CCC(=O)CC1CC(=O)C2CCCN12` (stereo not drawn), for which the TGI was > 100 µM.

In turn, `Cc1cc(NS(=O)(=O)c2ccc(Nc3c4ccccc4nc4c(C(=O)NCCN(C)C)cccc34)cc2)no1` showed a TGI of 27 µM.

In turn, `Nc1nc(CCl)nc(Nc2ccccc2)n1` displayed a TGI of 31.7 µM.

Take `O=S1OC2(c3ccccc3-c3ccccc32)c2ccccc21` (stereo not drawn): the TGI is > 100 µM.

`CCOC(=N)CC(=O)Nc1cccc(C)c1C`: the TGI was > 100 µM.

The test system of another test is NCI/ADR-RES ovarian. Briefly: NCI tumour cell line growth inhibition, 48 h.
With `CN(CCCNC(=O)Cc1ccc2ccc3cccc4ccc1c2c34)CCCNc1cc(-c2ccc3ccccc3c2)nc2ccccc12`, the GI50 was 1.49 µM and the TGI was determined as 2.96 µM.

As to `Cc1ccc(S(=O)(=O)NCCNc2nccc(-c3c(-c4ccc(F)cc4)nc4sccn34)n2)cc1`, the GI50 was 4.83 µM and the TGI was > 100 µM.

In the case of `Cc1cc[c-]cc1.Fc1c[c-]c(-c2ccccn2)c(F)c1.[Pt+2].c1ccc(P(C[PH+](c2ccccc2)c2ccccc2)c2ccccc2)cc1`, the GI50 is 13.9 µM and the TGI was 48.2 µM.

In the next test the test system is SW-620 colon. The test can be described thus: NCI tumour cell line growth inhibition, 48 h.
In the case of `COc1cc2ccc3c4cc(OC)c(OC(C)C)cc4cnc3c2cc1OC`, the TGI is > 100 µM.

In the case of `N#C/C(=C/N1CCN(C(=O)c2ccco2)C1=S)C(=O)c1ccccc1`, the GI50 is 5940 nM and the TGI stood at 38.3 µM.

Regarding `CN(CCCNC(=O)Cc1ccc2ccc3cccc4ccc1c2c34)CCCNc1cc(-c2ccc3ccccc3c2)nc2ccccc12`, the GI50 was 465 nM and the TGI was 1.7 µM.

Consider `CC(=O)c1sc(-c2nc(C)c(C(=O)/C=C\c3ccc(/C=C\C(=O)c4sc(-c5nc(C)c(C(C)=O)s5)nc4C)cc3)s2)nc1C`, for which the TGI was > 100 µM.

Compound `Cc1ccc(C2(O)CC(c3ccc([N+](=O)[O-])o3)=NN2C(=O)COc2ccc(Cl)cc2)cc1` (stereo not drawn) displayed a TGI of 10.6 µM.

In the case of `CC1=NN(C(=O)CC(=O)N(C(=O)c2ccccc2Cl)c2ccc(C)cc2)C(=O)C1N=Nc1ccc([N+](=O)[O-])cc1` (stereo not drawn), the TGI is > 53.6 µM.

As for `CC(C)(C=O)CC(C#N)/C(=N\NC(N)=O)C(=O)Nc1ccccc1C(N)=O` (stereo not drawn), the TGI was > 100 µM.

For `Cc1cc(C)c(C2[C@H]3C(=O)N(c4ccc(Cc5ccc(N6C(=O)[C@@H]7ON(c8ccccc8)C(c8c(C)cc(C)cc8C)[C@@H]7C6=O)cc5)cc4)C(=O)[C@H]3ON2c2ccccc2)c(C)c1` (stereo partly drawn), the TGI was > 100 µM.

In the case of `COc1ccc2[nH]c3c4c(ccc3c2c1)C(=O)C=CC4=O`, the TGI came to 6.63 µM.

With `CCCCOC(=O)NC(=O)c1cn(CCCOC(=O)NCCCCCCNC(=O)OCCCn2cc(C(=O)NC(=O)OCCCC)c(=O)[nH]c2=O)c(=O)[nH]c1=O`, the TGI was > 100 µM.

For `COc1cc(C)c2c(c1C)OC(=O)c1c(C)c(Cl)c(O)c(C=O)c1O2`, the TGI is > 100 µM.

Regarding `COC(=O)/C(C=O)=C/Sc1ccccc1`, the TGI is > 100 µM.

For the compound `Nc1ccn(C2(CO)C=C(CO)C(O)C2O)c(=O)n1` (stereo not drawn), the TGI was > 25.8 µM.

As to `C=C1C[C@]23CCC4C(C)(C)C(=O)CC[C@]4(C)C2C[C@H]1C(O)C3=O` (stereo partly drawn), the TGI was > 75 µM.

As for `CC1(C)O/C(=C\c2ccccc2)C(=O)/C(=C/c2ccccc2)O1`, the TGI was > 100 µM.

Take `O=C1CC2C(=O)N(Cc3ccccc3)C1C=C2S(=O)(=O)c1ccccc1` (stereo not drawn): the TGI was > 100 µM.

For `O=c1[nH]c2cc(Cl)ccc2nc1/C(=N\O)C(O)c1ccc(Cl)cc1Cl` (stereo not drawn), the TGI was > 100 µM.

On to `CC(C)CCCC(C)[C@H]1CCC2[C@H]3C(CC[C@@]21C)[C@@]1(C)CCC=C[C@]12C[C@@H]2[C@@H]3O` (stereo partly drawn), for which the TGI was > 100 µM.

Consider `O=C(Nc1cc(Cl)ccc1Cl)C(=O)C(c1cnc2ccccc2n1)[N+](=O)[O-]` (stereo not drawn), for which the TGI was > 100 µM.

`Cc1cc[c-]cc1.Fc1c[c-]c(-c2ccccn2)c(F)c1.[Pt+2].c1ccc(P(C[PH+](c2ccccc2)c2ccccc2)c2ccccc2)cc1`: the GI50 is 2830 nM and the TGI was 12.4 µM.

Turning to `COC(=O)CCC(=O)CC1CC(=O)C2CCCN12` (stereo not drawn), the TGI was > 100 µM.

For `Cc1cc(NS(=O)(=O)c2ccc(Nc3c4ccccc4nc4c(C(=O)NCCN(C)C)cccc34)cc2)no1`, the TGI was > 100 µM.

In the case of `Nc1nc(CCl)nc(Nc2ccccc2)n1`, the TGI turned out to be 46.3 µM.

Take `O=S1OC2(c3ccccc3-c3ccccc32)c2ccccc21` (stereo not drawn): the TGI is > 100 µM.

For the compound `CCOC(=N)CC(=O)Nc1cccc(C)c1C`, the TGI is > 100 µM.
